# Results taken from the METLIN SMRT retention time set (Domingo-Almenara et al. 2019).
# Assay: gradient 5% acetonitrile 3 min, to 50% in 2 min, to 85% in 15 min, held 3 min, 100 µL/min
# Conditions: column: Zorbax Extend-C18 2.1 x 50 mm; eluents: water / acetonitrile, 0.1% formic acid
# Outline: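 Retention times come from adduct peaks that were picked computationally and then checked by hand. The standards, pure and pooled in mixtures of ~100 molecules, were run on a Zorbax Extend-C18 column (2.1 × 50 mm, 1.8 μm) at 100 μL/min with water and acetonitrile, each with 0.1% formic acid. Detection was by quadrupole time-of-flight mass spectrometry in positive and negative ionization mode, with a dead volume of 40 μL and a dwell volume of 900 μL.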
row,Structure (SMILES),RP-LC retention time [s]
1,CC(=O)N1CCc2cc(N3CC(C(=O)Nc4ccc(F)cc4)CC3=O)ccc21 (stereo not given),699
2,COc1ccccc1CN1CCc2nc(N3CCN(c4ccccc4F)CC3)ncc2C1,808
3,c1cncc(-c2nc(-c3ccc(OC4CN(Cc5ccsc5)C4)cc3)no2)c1,693
4,COc1ccc2cc3c(=O)n(-c4ccc(C(=O)O)cc4)nc-3oc2c1,891
5,O=C(NCc1ccccc1)c1ccc(=O)n(CCN2CCCC2)c1,579
6,COc1ccc(-c2nnc(-c3cccc(S(=O)(=O)N4CCCCC4)c3)o2)cc1OC,991
7,CC(C)C(=O)NCCc1nc2cccnc2n1C,545
8,O=C(Nc1ccc(F)cc1)c1c(O)c2cccnc2n(-c2ccccc2)c1=O,1240
9,CCOC(=O)c1csc(NC(=O)c2ccn(CC)n2)n1,702
10,CCc1noc(NC(C)=O)c1-c1ccc(C)c(S(=O)(=O)Nc2cc(C)cc(C)c2)c1,885
11,Cc1ccc(NS(=O)(=O)c2cn(C(C)C)c3ncccc23)cc1F,861
12,Cc1cccc(CNC(=O)C2c3ccccc3CC(=O)N2C)c1 (stereo not given),748
13,Cc1ccc(C)c(-c2cc3c(=O)n(Cc4nc(-c5ccccc5Cl)no4)ncn3n2)c1,1220
14,CC(C)CCNC(=O)C1CCN(c2cncnc2N(C)C)CC1,564
15,CC1CCN(C(=O)C2CCN(c3cc(N4CCCCC4)ncn3)CC2)CC1,676
16,Cc1ccc(C)c(S(=O)(=O)N2CCC(F)(c3nc(CC(C)C)no3)CC2)c1,1270
17,Cn1c(=O)n(C)c2cc(CNc3ccc(O)cc3)ccc21,1190
18,Cc1ccc(C(=O)Nc2ccc3c(c2)Sc2ncccc2C(=O)N3C(C)C)c(C)c1,962
19,COc1ccccc1NC(=O)Cn1c(-c2nc(C(C)C)no2)cccc1=O,927
20,CCOCN(C(=O)Cn1c(CC)nc2ccccc21)c1c(C)cccc1CC,780
21,Cc1nc2nc(-c3ccc(Cl)cc3)nn2c(C)c1CC(=O)N1CCCC1,780
22,O=C(NCc1ccccn1)c1scc(-c2ccc(F)cc2)c1-n1cccc1,821
23,Cc1ccccc1NC(=O)N1CCC(CC(=O)N2CCCCC2)CC1,732

row,Structure (SMILES),RP-LC retention time [s]
1,O=C(c1ccc(-n2cccn2)nc1)N1CCCCC1,732
2,Cc1cc(C)cc(NC(=O)Cn2c(N3CCC(C)CC3)nc(C)cc2=O)c1,796
3,O=C1C(N2CCCN(S(=O)(=O)c3cccnc3)CC2)CCN1CC1CC1 (stereo not given),593
4,Cc1ccc(-c2noc(Cn3ccnc3C)n2)cc1,629
5,CCOC(=O)c1sc(NC(=O)c2cn(CC)c3nc(C)ccc3c2=O)nc1C,1040
6,O=c1c2nc(-c3ccc4c(c3)OCO4)cn2ccn1-c1ccc(Cl)cc1,834
7,Cc1nccn1Cc1nc(-c2ccc(Br)cc2)no1,663
8,CCCN1C(=O)C2CCC(=O)N2c2ccc(C(=O)NC(C)(C)CC)cc21 (stereo not given),812
9,O=C(C1=CN(c2cc(F)cc(F)c2)c2cc(F)ccc2S1(=O)=O)N1CCCC1,829
10,CCCC1c2nccn2CCCN1C(=O)c1ccoc1C (stereo not given),592
11,O=C(CCCOc1ccc(Cl)cc1Cl)Nc1nc(-c2ccc(Cl)cc2)cs1,1300
12,CC(C)NC(=O)CN1CCN(c2cc(C(=O)O)c3cc(NC(=O)c4ccc(F)cc4)ccc3n2)CC1,603
13,COc1cc(C2=NN(C(C)=O)C(c3ccncc3)O2)cc(OC)c1OC(C)=O (stereo not given),714
14,O=C(Nc1cccc(Cl)c1)N1CCN(c2cnn3c(C4CC4)nnc3c2)CC1,694
15,CC(C)n1cnc(S(=O)(=O)N2CCC(C(=O)NC3CCCCCC3)CC2)c1,736
16,CCOc1ccc(NC(=O)Cn2nc(N3CCSCC3)c3ccccc3c2=O)cc1,929
17,Cc1sc(NC(=O)Cc2ccccc2)nc1-c1ccc2c(c1)NC(=O)CO2,830
18,CC(C)c1ccc(OCC(=O)Nc2nnc(C3CC(=O)N(c4ccc(Cl)cc4)C3)o2)cc1 (stereo not given),943
19,CCC(=O)n1nc(C)c(S(=O)(=O)N2CCC(C)CC2)c1C,1150
20,CCC(C)Sc1nnc(-c2cn(C)nc2OC)n1CCOC (stereo not given),634
21,COc1cccc2sc(NC(=O)c3coc4ccccc4c3=O)nc12,921
22,COc1ccc(S(=O)(=O)N2CCCC(c3nn[nH]n3)C2)cc1 (stereo not given),714
23,COc1cccc(-c2nc(-c3ccc4oc(-c5ccccc5)nc4c3)no2)c1OC,1410

row,Structure (SMILES),RP-LC retention time [s]
1,COc1ccc(-c2nc(CC3CCNC3)no2)cc1 (stereo not given),607
2,CCn1ccc2c(cc(C(=O)Nc3cc(C)ccc3C)n2C)c1=O,721
3,Cc1ccc(Cl)cc1NC(=O)NC(C)C(=O)N1CCc2ccccc21 (stereo not given),945
4,Cn1cc(C(=O)N2CCN(C3CCCCC3)CC2)c2cccnc21,632
5,OCCN1CCN(CC(O)COc2ccc3c(c2)CCC3)CC1 (stereo not given),553
6,CC(=O)N1CCN(c2nc(C)cc(N3CCCC3)n2)CC1,580
7,Cc1cc(C)cc(NC(=O)C2CCCN(S(=O)(=O)c3c[nH]c(C(=O)N4CCCCCC4)c3)C2)c1 (stereo not given),955
8,COC(=O)c1ccc2c(=O)n(-c3ccccc3)c(N3CCCC3)nc2c1,908
9,COc1c(Sc2ccc([N+](=O)[O-])cc2)c(C)nn1-c1ccccc1,1130
10,Cc1ncc2c(n1)C[C@@H]1CC[C@H]2N1S(=O)(=O)Cc1ccccc1,706
11,Cc1oc(-c2[nH]ncc2C(=O)N(C)C)cc1S(=O)(=O)NC(C)C,600
12,CCCC(=O)N1CCN(c2ccc(=O)n(-c3ccc(C(C)C)cc3)n2)CC1,851
13,CNC(=O)CSc1nc(-c2ccccc2)c(NC(=O)COc2ccccc2F)s1,806
14,CC(=O)N1CCN(c2nc(-c3ccccc3)c3cc(Br)ccc3n2)CC1,1010
15,CCCCN1CCN(Cc2nc(-c3ccc(N4CCCCC4)nc3)no2)CC1,602
16,Cc1cc(-c2nnc(NC(=O)Cc3ccc4c(c3)OCO4)o2)n(C)n1,648
17,O=C(Cn1ccnc1-c1ccnc(N2CCCCC2)c1)NC1CCCCC1,624
18,Cc1ccc(C2CC(=O)c3cnc(N4CCN(c5ccccn5)CC4)nc3C2)cc1 (stereo not given),727
19,COc1ccc2cc1Oc1ccc(cc1)CC1c3c(cc(OC)c4c3Oc3cc5c(cc3O4)CCNC5C2)CCN1C (stereo not given),601
20,CCc1ccc(Nc2cc(C(=O)N3CCC(C)CC3)nc3cc(OC)c(OC)cc23)cc1,832
21,CCOc1ccc(S(=O)(=O)N2CCCC(C(=O)NCCOC)C2)cc1C (stereo not given),769
22,CCCCn1c(CN2CCCC2)nc2cc(NC(=O)CC)ccc21,605
23,CCNC(=O)c1cccc(Nc2c(-c3ccc(SC)cc3)nc3cnccn23)c1,887

row,Structure (SMILES),RP-LC retention time [s]
1,Cc1cccc(NC(=O)N2CCC3(CC2)NC(=O)c2ccc(F)cc2N3C)c1,723
2,NC(=O)C1CCN(C(=O)c2cccc(NC(=O)c3nsc4ccccc34)c2)CC1,703
3,CC1CCC(C(=O)Nc2ccc(-c3nnc4n3CCCC4)cc2)CC1 (stereo not given),734
4,CCc1noc(NC(C)=O)c1-c1ccc(C)c(S(=O)(=O)NCc2ccccc2OC)c1,827
5,COc1ccc(Cl)c2c(=O)c3c([nH]c12)CCN(CC(=O)Nc1cccc(Cl)c1C)C3,651
6,CCCC(NC(=O)c1cccc(Cl)c1)C(=O)Nc1nc2ccccc2[nH]1 (stereo not given),742
7,O=C(Nc1cc(Cl)ccc1Cl)C1CN(C(=O)c2ccc(F)c(F)c2)C1,862
8,CCc1nc2cc(-c3noc(Cc4ccc(OC)c(Cl)c4)n3)ccc2o1,1120
9,COC1C(=O)N(c2cccc(F)c2)C12CCN(S(=O)(=O)Cc1ccccc1)CC2 (stereo not given),1020
10,Fc1ccccc1Cn1cccc1-c1nc(-c2ccc3c(c2)OCO3)no1,1230
11,COc1ccc(NC(=O)N2[C@H]3CC[C@@H]2c2cnc(-c4ccccc4)nc2C3)cc1OC,838
12,COC(=O)C1=CN(c2ccc(C)c(F)c2)c2ccc(F)cc2S1(=O)=O,920
13,CCc1cc(C(=O)Nc2ccc(C(=O)OC)cc2)nc2cc(-c3ccco3)nn12,1200
14,COc1cccc(-c2noc(Cn3ccn(-c4ccc(Cl)cc4)c(=O)c3=O)n2)c1,876
15,CCC(=O)Nc1ccc(-n2cnc(C(=O)N3CCC4(CC3)OCCO4)c2)nc1,616
16,c1ccc(-n2nnnc2Oc2ccc(CNCCc3c[nH]c4ccccc34)cc2)cc1,748
17,O=C(NC1CC1)c1ccc(CN2CCN(Cc3ccccc3)C(=O)C2=O)cc1,1240
18,Cc1cnc(-c2ccncc2)n1CC1CN(Cc2cccn2C)C1,692
19,CCC(=O)Nc1ccc(SCc2nnc(-c3ccccc3)o2)cc1,811
20,COc1ccc(NC(=O)Cn2ccc3ccc(-c4nnc(C)o4)cc32)cc1Cl,811
21,Cc1ccc(CCNS(=O)(=O)c2ccc3c(c2)CCCC(=O)N3)cc1,789
